# Reference: PubChem BioAssay (NCI)
#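 Values below derive from 48-hour exposures of cells grown in 96-well plates, with endpoints linearly interpolated between the two concentrations bracketing the appropriate inhibition level. GI50 = concentration required for 50% inhibition of growth. TGI denotes the concentration required for complete inhibition of growth.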
# Key:
# Test in all cases: NCI-60 cell line screen, 48 h
# [1] = tested on: UACC-62 melanoma
# [2] = tested on: U251 CNS
# [3] = tested on: EKVX NSCLC
# [4] = tested on: UO-31 renal
# [5] = tested on: SR leukemia
# [6] = tested on: UACC-257 melanoma
# [7] = tested on: HOP-92 NSCLC
# [8] = tested on: HS 578T breast
# [9] = tested on: ACHN renal
# [10] = tested on: MCF7 breast
# [11] = tested on: KM12 colon
# [12] = tested on: SN12C renal
# [13] = tested on: SK-OV-3 ovarian
# [14] = tested on: NCI/ADR-RES ovarian
# [15] = tested on: NCI-H23 lung
# [16] = tested on: SK-MEL-2 melanoma
# [17] = tested on: HCC-2998 colon
# [18] = tested on: A549 NSCLC
# [19] = tested on: SF-268 CNS
# [20] = tested on: COLO 205 colon
# [21] = tested on: LOX IMVI melanoma
# [22] = tested on: T-47D breast
# [23] = tested on: TK-10 renal
# [24] = tested on: RXF 393 renal
# [25] = tested on: NCI-H226 lung
# [26] = tested on: SNB-19 CNS
# [27] = tested on: CAKI-1 renal
# [28] = tested on: HCT-15 colon
# [29] = tested on: CCRF-CEM leukemia
# [30] = tested on: HCT-116 colon
# [31] = tested on: HOP-62 NSCLC
# [32] = tested on: M14 melanoma
# [33] = tested on: HT29 colon
# [34] = tested on: MOLT-4 leukemia
# [35] = tested on: MDA-MB-231 breast
# [36] = tested on: SW-620 colon
# [37] = tested on: PC-3 prostate
# [38] = tested on: NCI-H522 lung
# [39] = tested on: SF-539 CNS
# [40] = tested on: OVCAR-4 ovarian
# [41] = tested on: DU-145 prostate
# [42] = tested on: K-562 leukemia
# [43] = tested on: BT-549 breast
# [44] = tested on: A498 renal
# [45] = tested on: SF-295 CNS
# [46] = tested on: MALME-3M melanoma
# [47] = tested on: HL-60(TB) leukemia
# [48] = tested on: RPMI-8226 leukemia
# [49] = tested on: NCI-H460 lung
# [50] = tested on: SNB-75 CNS
# [51] = tested on: OVCAR-3 ovarian
# [52] = tested on: 786-0 renal
# [53] = tested on: OVCAR-5 ovarian
# [54] = tested on: SK-MEL-5 melanoma
# [55] = tested on: MDA-MB-435
# [56] = tested on: IGROV1 ovarian
# [57] = tested on: SK-MEL-28 melanoma
# [58] = tested on: OVCAR-8 ovarian
compound,measurement,setting,value
CCC(=C(c1ccc(OCCN2CCCC2)cc1)c1ccc(OCCN2CCCC2)cc1)c1ccc(Cl)cc1,GI50,[1],0.61 µM
same,TGI,[1],1.16 µM
same,GI50,[2],0.576 µM
same,TGI,[2],1.14 µM
same,GI50,[3],0.666 µM
same,TGI,[3],1.4 µM
same,GI50,[4],0.5 µM
same,TGI,[4],0.965 µM
same,GI50,[5],0.347 µM
same,TGI,[5],1.09 µM
same,GI50,[6],0.595 µM
same,TGI,[6],1.18 µM
same,GI50,[7],0.482 µM
same,TGI,[7],1.04 µM
same,GI50,[8],0.659 µM
same,TGI,[8],1.52 µM
same,GI50,[9],0.585 µM
same,TGI,[9],1.06 µM
same,GI50,[10],0.287 µM
same,TGI,[10],0.822 µM
same,GI50,[11],0.626 µM
same,TGI,[11],1.21 µM
same,GI50,[12],0.572 µM
same,TGI,[12],1.1 µM
same,GI50,[13],0.583 µM
same,TGI,[13],1.14 µM
same,GI50,[14],0.599 µM
same,TGI,[14],1.15 µM
same,GI50,[15],0.667 µM
same,TGI,[15],1.38 µM
same,GI50,[16],0.688 µM
same,TGI,[16],1.35 µM
same,GI50,[17],0.566 µM
same,TGI,[17],1.07 µM
same,GI50,[18],0.594 µM
same,TGI,[18],1.21 µM
same,GI50,[19],0.612 µM
same,TGI,[19],1.25 µM
same,GI50,[20],0.615 µM
same,TGI,[20],1.25 µM
same,GI50,[21],0.54 µM
same,TGI,[21],1.02 µM
same,GI50,[22],0.498 µM
same,TGI,[22],1.21 µM
same,GI50,[23],0.628 µM
same,TGI,[23],1.33 µM
same,GI50,[24],0.545 µM
same,TGI,[24],1.04 µM
same,GI50,[25],0.735 µM
same,TGI,[25],1.63 µM
same,GI50,[26],0.624 µM
same,TGI,[26],1.19 µM
same,GI50,[27],0.52 µM
same,TGI,[27],0.992 µM
same,GI50,[28],0.524 µM
same,TGI,[28],1.04 µM
same,GI50,[29],0.601 µM
same,TGI,[29],1.58 µM
same,GI50,[30],0.545 µM
same,TGI,[30],1.05 µM
same,GI50,[31],0.688 µM
same,TGI,[31],1.58 µM
same,GI50,[32],0.629 µM
same,TGI,[32],1.18 µM
same,GI50,[33],0.511 µM
same,TGI,[33],1.15 µM
same,GI50,[34],0.592 µM
same,TGI,[34],1.32 µM
same,GI50,[35],0.589 µM
same,TGI,[35],1.11 µM
same,GI50,[36],0.554 µM
same,TGI,[36],1.09 µM
same,GI50,[37],0.569 µM
same,TGI,[37],1.2 µM
same,GI50,[38],0.577 µM
same,TGI,[38],1.24 µM
same,GI50,[39],0.558 µM
same,TGI,[39],1.05 µM
same,GI50,[40],0.667 µM
same,TGI,[40],1.43 µM
same,GI50,[41],0.617 µM
same,TGI,[41],1.14 µM
same,GI50,[42],0.226 µM
same,TGI,[42],0.751 µM
same,GI50,[43],0.733 µM
same,TGI,[43],1.86 µM
same,GI50,[44],1.28 µM
same,TGI,[44],2.82 µM
same,GI50,[45],0.637 µM
same,TGI,[45],1.23 µM
same,GI50,[46],0.564 µM
same,TGI,[46],1.07 µM
same,GI50,[47],0.606 µM
same,TGI,[47],1.27 µM
same,GI50,[48],0.674 µM
same,TGI,[48],1.53 µM
same,GI50,[49],0.624 µM
same,TGI,[49],1.18 µM
same,GI50,[50],0.921 µM
same,TGI,[50],2.61 µM
same,GI50,[51],0.624 µM
same,TGI,[51],1.29 µM
same,GI50,[52],0.591 µM
same,TGI,[52],1.1 µM
same,GI50,[53],0.568 µM
same,TGI,[53],1.11 µM
same,GI50,[54],0.6 µM
same,TGI,[54],1.07 µM
same,GI50,[55],0.552 µM
same,TGI,[55],1.03 µM
same,GI50,[56],0.582 µM
same,TGI,[56],1.1 µM
same,GI50,[57],0.571 µM
same,TGI,[57],1.06 µM
same,GI50,[58],0.692 µM
same,TGI,[58],1.57 µM
CCN(CC)CCCNc1cc(OC)c(OC)c2cccnc12,GI50,[1],3.16 µM
same,TGI,[1],28.7 µM
same,GI50,[2],3.71 µM
same,TGI,[2],21 µM
same,GI50,[3],16.4 µM
same,TGI,[3],54.8 µM
same,GI50,[4],14.1 µM
same,TGI,[4],> 100 µM
same,GI50,[5],1.22 µM
same,TGI,[5],> 100 µM
same,GI50,[6],4.55 µM
same,TGI,[6],22.4 µM
same,GI50,[7],28.4 µM
same,TGI,[7],62.8 µM
same,GI50,[8],7.3 µM
same,TGI,[8],42.8 µM
same,GI50,[9],2.61 µM
same,TGI,[9],46.3 µM
same,GI50,[10],1.71 µM
same,TGI,[10],5.47 µM
same,GI50,[11],13 µM
same,TGI,[11],31 µM
same,GI50,[12],2.47 µM
same,TGI,[12],7.7 µM
same,GI50,[13],9.37 µM
same,TGI,[13],44.9 µM
same,GI50,[14],15.6 µM
same,TGI,[14],49 µM
same,GI50,[15],1.85 µM
same,TGI,[15],26.1 µM
same,GI50,[16],14.5 µM
same,TGI,[16],42.8 µM
same,GI50,[17],11.9 µM
same,TGI,[17],25.7 µM
same,GI50,[18],10.5 µM
same,TGI,[18],38.1 µM
same,GI50,[19],14.4 µM
same,TGI,[19],46.3 µM
same,GI50,[20],10 µM
same,TGI,[20],23.2 µM
same,GI50,[21],2.22 µM
same,TGI,[21],34.4 µM
same,GI50,[22],16.4 µM
same,TGI,[22],42 µM
same,GI50,[23],23 µM
same,TGI,[23],50.1 µM
same,GI50,[24],19.1 µM
same,TGI,[24],34.3 µM
same,GI50,[25],15.2 µM
same,TGI,[25],37.7 µM
same,GI50,[26],13.1 µM
same,TGI,[26],45 µM
same,GI50,[27],2.15 µM
same,TGI,[27],29.7 µM
same,GI50,[28],14.1 µM
same,TGI,[28],49.8 µM
same,GI50,[30],2.18 µM
same,TGI,[30],7.58 µM
same,GI50,[31],2.04 µM
same,TGI,[31],21.4 µM
same,GI50,[32],12.6 µM
same,TGI,[32],37.6 µM
same,GI50,[33],13.4 µM
same,TGI,[33],40.3 µM
same,GI50,[34],3.27 µM
same,TGI,[34],8.88 µM
same,GI50,[35],6.69 µM
same,TGI,[35],51.4 µM
same,GI50,[36],1.8 µM
same,TGI,[36],20.2 µM
same,GI50,[37],16.1 µM
same,TGI,[37],47.2 µM
same,GI50,[38],2.38 µM
same,TGI,[38],10.5 µM
same,GI50,[39],8.01 µM
same,TGI,[39],23 µM
same,GI50,[40],1.68 µM
same,TGI,[40],3.18 µM
same,GI50,[41],15.9 µM
same,TGI,[41],33.4 µM
same,GI50,[42],5.22 µM
same,TGI,[42],> 100 µM
same,GI50,[43],18.6 µM
same,TGI,[43],36.5 µM
same,GI50,[44],18.6 µM
same,TGI,[44],42 µM
same,GI50,[45],7.74 µM
same,TGI,[45],33.1 µM
same,GI50,[46],12.8 µM
same,TGI,[46],31.1 µM
same,GI50,[47],3.47 µM
same,TGI,[47],6.55 µM
same,GI50,[48],11.2 µM
same,TGI,[48],40.7 µM
same,GI50,[49],1.47 µM
same,TGI,[49],16.9 µM
same,GI50,[50],3.05 µM
same,TGI,[50],14.8 µM
same,GI50,[51],2.19 µM
same,TGI,[51],5.13 µM
same,GI50,[52],12 µM
same,TGI,[52],31.3 µM
same,GI50,[53],20.6 µM
same,TGI,[53],51.1 µM
same,GI50,[54],5.67 µM
same,TGI,[54],19.9 µM
same,GI50,[55],3.05 µM
same,TGI,[55],14.4 µM
same,GI50,[57],15.7 µM
same,TGI,[57],32.9 µM
same,GI50,[58],13.3 µM
same,TGI,[58],35.5 µM
